{"source": "ChEMBL document CHEMBL5247627", "about": "“1-Methyl-3-((4-(quinolin-4-yloxy)phenyl)amino)-1H-pyrazole-4-carboxamide derivatives as new rearranged during Transfection (RET) kinase inhibitors capable of suppressing resistant mutants in solvent-front regions” (Eur J Med Chem, 2022)", "key": {"[1]": {"system": "BaF3", "assay": "Induction of apoptosis in mouse BaF3 cells harbouring CCDC6-RET G810R assessed as late apoptotic cells measured at 33.3 nM for 48 hrs by Annexin V-FITC staining based Guava easyCyte flow cytometric analysis (reference value: 3.4 %)", "type": "functional"}, "[2]": {"system": "BaF3", "assay": "Antitumor activity against mouse BaF3 cells harbouring CCDC6-RET G810C cells xenografted in CB17-SCID mouse assessed as reduction in tumor growth administered intraperitoneally qd administered for 12 days measured every 2 days", "type": "functional, cell-based", "conditions": "dose 10-30 mg/kg, route ip, time 12.0 day"}, "[3]": {"system": "BaF3", "assay": "Antitumor activity against mouse BaF3 cells harbouring CCDC6-RET G810C cells xenografted in CB17-SCID mouse assessed as reduction in tumor growth at 30 mg/kg ip qd administered for 12 days measured every 2 days relative to control", "type": "functional", "conditions": "BaF3, 288 h, time 12 day, read-out: TGI"}, "[4]": {"system": "BaF3", "assay": "Induction of apoptosis in mouse BaF3 cells harbouring CCDC6-RET G810C assessed as necrotic cells measured at 100 nM for 48 hrs by Annexin V-FITC staining based Guava easyCyte flow cytometric analysis (reference value: 0.35 %)", "type": "functional"}, "[5]": {"system": "BaF3", "assay": "Induction of apoptosis in mouse BaF3 cells harbouring CCDC6-RET G810R assessed as viable cells measured at 33.3 nM for 48 hrs by Annexin V-FITC staining based Guava easyCyte flow cytometric analysis (reference value: 89.5 %)", "type": "functional", "conditions": "read-out: Activity"}, "[6]": {"system": "BaF3", "assay": "Antiproliferative activity against mouse BaF3 cells expressing wildtype rearranged during transfection kinase-CCDC6 incubated for 74 to 76 hrs by cell counting kit 8 method"}, "[7]": {"system": "BaF3", "assay": "Induction of apoptosis in mouse BaF3 cells harbouring CCDC6-RET G810R assessed as early apoptotic cells measured at 33.3 nM for 48 hrs by Annexin V-FITC staining based Guava easyCyte flow cytometric analysis (reference value: 6.46 %)", "type": "functional"}, "[8]": {"system": "BaF3", "assay": "Induction of apoptosis in mouse BaF3 cells harbouring CCDC6-RET G810C assessed as late apoptotic cells measured at 33.3 nM for 48 hrs by Annexin V-FITC staining based Guava easyCyte flow cytometric analysis (reference value: 2.65 %)", "type": "functional"}, "[9]": {"assay": "Toxicity in CB17-SCID mouse xenografted with BaF3 cells expressing CCDC6-RET G810C assessed as tolerability measured at 10 to 30 mg/kg, ip qd administered for 12 days", "type": "organism-based", "conditions": "in vivo, 288 h, dose 10-30 mg/kg, time 12 day"}, "[10]": {"system": "BaF3", "assay": "Induction of apoptosis in mouse BaF3 cells harbouring CCDC6-RET G810C assessed as viable cells measured at 33.3 nM for 48 hrs by Annexin V-FITC staining based Guava easyCyte flow cytometric analysis (reference value: 90.90 %)", "type": "functional", "conditions": "read-out: Activity"}, "[11]": {"system": "BaF3", "assay": "Antiproliferative activity against mouse BaF3 cells expressing rearranged during transfection kinase V804L-G810C incubated for 74 to 76 hrs by cell counting kit 8 method"}, "[12]": {"system": "BaF3", "assay": "Antiproliferative activity against mouse BaF3 cells expressing wildtype rearranged during transfection kinase-KIF5B incubated for 74 to 76 hrs by cell counting kit 8 method"}, "[13]": {"system": "BaF3", "assay": "Induction of apoptosis in mouse BaF3 cells harbouring CCDC6-RET G810C assessed as late apoptotic cells measured at 300 nM for 48 hrs by Annexin V-FITC staining based Guava easyCyte flow cytometric analysis (reference value: 2.65 %)", "type": "functional"}, "[14]": {"system": "BaF3", "assay": "Induction of apoptosis in mouse BaF3 cells harbouring CCDC6-RET G810C assessed as early apoptotic cells measured at 300 nM for 48 hrs by Annexin V-FITC staining based Guava easyCyte flow cytometric analysis (reference value: 6.10 %)", "type": "functional"}, "[15]": {"system": "BaF3", "assay": "Antiproliferative activity against mouse BaF3 cells expressing rearranged during transfection kinase V804M-KIF5B incubated for 74 to 76 hrs by cell counting kit 8 method"}, "[16]": {"system": "BaF3", "assay": "Antiproliferative activity against mouse BaF3 cells expressing rearranged during transfection kinase G810C-CCDC6 incubated for 74 to 76 hrs by cell counting kit 8 method"}, "[17]": {"system": "BaF3", "assay": "Induction of apoptosis in mouse BaF3 cells harbouring CCDC6-RET G810R assessed as necrotic cells measured at 300 nM for 48 hrs by Annexin V-FITC staining based Guava easyCyte flow cytometric analysis (reference value: 0.64 %)", "type": "functional"}, "[18]": {"assay": "Toxicity in CB17-SCID mouse xenografted with BaF3 cells expressing CCDC6-RET G810C assessed as loss of body weight measured at 10 to 30 mg/kg, ip qd administered for 12 days measured every 2 days", "type": "organism-based", "conditions": "in vivo, 288 h, dose 10-30 mg/kg, time 12 day"}, "[19]": {"system": "BaF3", "assay": "Antiproliferative activity against mouse BaF3 cells expressing rearranged during transfection kinase V804L-KIF5B incubated for 74 to 76 hrs by cell counting kit 8 method"}, "[20]": {"system": "BaF3", "assay": "Induction of apoptosis in mouse BaF3 cells harbouring CCDC6-RET G810C assessed as necrotic cells measured at 33.3 nM for 48 hrs by Annexin V-FITC staining based Guava easyCyte flow cytometric analysis (reference value: 0.35 %)", "type": "functional"}, "[21]": {"system": "BaF3", "assay": "Induction of apoptosis in mouse BaF3 cells harbouring CCDC6-RET G810C assessed as necrotic cells measured at 300 nM for 48 hrs by Annexin V-FITC staining based Guava easyCyte flow cytometric analysis (reference value: 0.35 %)", "type": "functional"}, "[22]": {"system": "BaF3", "assay": "Induction of apoptosis in mouse BaF3 cells harbouring CCDC6-RET G810C assessed as late apoptotic cells measured at 100 nM for 48 hrs by Annexin V-FITC staining based Guava easyCyte flow cytometric analysis (reference value: 2.65 %)", "type": "functional"}, "[23]": {"system": "BaF3", "conditions": "Mus musculus, dose <= 100.0 nM, time 4.0 hrs"}, "[24]": {"system": "BaF3", "assay": "Antiproliferative activity against mouse BaF3 cells incubated for 74 to 76 hrs by cell counting kit 8 method", "type": "functional, cell-based"}, "[25]": {"system": "BaF3", "assay": "Induction of apoptosis in mouse BaF3 cells harbouring CCDC6-RET G810C assessed as early apoptotic cells measured at 33.3 nM for 48 hrs by Annexin V-FITC staining based Guava easyCyte flow cytometric analysis (reference value: 6.10 %)", "type": "functional"}, "[26]": {"system": "BaF3", "assay": "Antiproliferative activity against mouse BaF3 cells expressing rearranged during transfection kinase V804L-G810R incubated for 74 to 76 hrs by cell counting kit 8 method"}, "[27]": {"system": "BaF3", "conditions": "Mus musculus, dose 100.0 nM, time 4.0 hrs"}, "[28]": {"system": "BaF3", "assay": "Induction of apoptosis in mouse BaF3 cells harbouring CCDC6-RET G810C assessed as viable cells measured at 300 nM for 48 hrs by Annexin V-FITC staining based Guava easyCyte flow cytometric analysis (reference value: 90.90 %)", "type": "functional", "conditions": "read-out: Activity"}, "[29]": {"system": "BaF3", "assay": "Induction of apoptosis in mouse BaF3 cells harbouring CCDC6-RET G810C assessed as viable cells measured at 100 nM for 48 hrs by Annexin V-FITC staining based Guava easyCyte flow cytometric analysis (reference value: 90.90 %)", "type": "functional", "conditions": "read-out: Activity"}, "[30]": {"system": "BaF3", "assay": "Induction of apoptosis in mouse BaF3 cells harbouring CCDC6-RET G810R assessed as necrotic cells measured at 100 nM for 48 hrs by Annexin V-FITC staining based Guava easyCyte flow cytometric analysis (reference value: 0.64 %)", "type": "functional"}, "[31]": {"system": "BaF3", "conditions": "Mus musculus, dose 100.0 nM, time 4.0 hrs", "remark": "listed apart in the source"}}, "note": "Activity calls are given as the source filed them. The rule behind the calls is not given here.", "data": [{"smiles": "COc1cc2nccc(Oc3ccc(Nc4nn(C)cc4C(=O)NC45CC6CC(CC(C6)C4)C5)c(F)c3)c2cc1C(N)=O", "values": [{"measurement": "Activity", "setting": "[1]", "result": 2.25, "unit": "%"}, {"measurement": "Activity", "setting": "[2]", "result": "Dose-Dependent Effect"}, {"measurement": "inhibition in vivo at 30 mg/kg", "setting": "[3]", "result": 66.9, "unit": "%"}, {"measurement": "Activity", "setting": "[4]", "result": 0.25, "unit": "%"}, {"measurement": "viability at 0.0333 µM", "setting": "[5]", "result": 91.1, "unit": "%"}, {"measurement": "IC50", "setting": "[6]", "result": 5.6, "unit": "nM"}, {"measurement": "Activity", "setting": "[7]", "result": 6.47, "unit": "%"}, {"measurement": "Activity", "setting": "[8]", "result": 1.5, "unit": "%"}, {"measurement": "Activity", "setting": "[9]", "result": "Non-Toxic"}, {"measurement": "viability at 0.0333 µM", "setting": "[10]", "result": 90.8, "unit": "%"}, {"measurement": "IC50", "setting": "[11]", "result": 54.2, "unit": "nM"}, {"measurement": "IC50", "setting": "[12]", "result": 6.1, "unit": "nM"}, {"measurement": "Activity", "setting": "[13]", "result": 3.08, "unit": "%"}, {"measurement": "Activity", "setting": "[14]", "result": 53.4, "unit": "%"}, {"measurement": "IC50", "setting": "[15]", "result": 53.1, "unit": "nM"}, {"measurement": "IC50", "setting": "[16]", "result": 15.4, "unit": "nM"}, {"measurement": "Activity", "setting": "[17]", "result": 0.24, "unit": "%"}, {"measurement": "Activity", "setting": "[18]", "result": "Non-Toxic"}, {"measurement": "IC50", "setting": "[19]", "result": 47.3, "unit": "nM"}, {"measurement": "Activity", "setting": "[20]", "result": 0.28, "unit": "%"}, {"measurement": "Activity", "setting": "[21]", "result": 0.41, "unit": "%"}, {"measurement": "Activity", "setting": "[22]", "result": 2.39, "unit": "%"}, {"measurement": "inhibition", "setting": "[23]", "result": "Dose-Dependent Effect"}, {"measurement": "IC50", "setting": "[24]", "result": "> 10000", "unit": "nM"}, {"measurement": "Activity", "setting": "[25]", "result": 7.39, "unit": "%"}, {"measurement": "IC50", "setting": "[26]", "result": 120, "unit": "nM"}, {"measurement": "inhibition", "setting": "[27]", "result": "Active"}, {"measurement": "viability at 0.3 µM", "setting": "[28]", "result": 43.1, "unit": "%"}, {"measurement": "viability at 0.1 µM", "setting": "[29]", "result": 80.2, "unit": "%"}, {"measurement": "Activity", "setting": "[30]", "result": 0.23, "unit": "%"}, {"measurement": "inhibition", "setting": "[31]", "result": "Active"}]}]}
